Experimental data taken from the NIST ThermoML archive (doi:10.1021/acs.jced.5b01003).
Values joined by “and” are separate entries in the source; they are usually repeats but may differ in a detail not shown here. Equal values may be shown once.

Conditions: Liquid, Transpiration method

CNCCNC [N1,N2-dimethylethane-1,2-diamine]
Conditions | vapor or sublimation pressure [kPa]
279.2 K | 0.4258
281.4 K | 0.5045
283.3 K | 0.5851
285.6 K | 0.6936
288.2 K | 0.8579
290.6 K | 1.023
293.2 K | 1.228
295.8 K | 1.498
298.2 K | 1.781
300.7 K | 2.106
303.4 K | 2.477
305.6 K | 2.892
308.2 K | 3.408
310.7 K | 3.974

CNCCN(C)C [N,N,N'-trimethylethylenediamine]
Conditions | vapor or sublimation pressure [kPa]
274.2 K | 0.5021
276.7 K | 0.605
281.8 K | 0.8858
286.8 K | 1.271
291 K | 1.686
296.3 K | 2.403
298.2 K | 2.733
301 K | 3.259
303.2 K | 3.811
304.1 K | 4.074
305.4 K | 4.402

CNCCN [N-methylethylenediamine]
Conditions | vapor or sublimation pressure [kPa]
272.2 K | 0.2731
274.3 K | 0.3181
275.4 K | 0.3449
278 K | 0.4148
278.6 K | 0.4455
279.4 K | 0.4695
280.2 K | 0.4943
281.3 K | 0.5355
282.3 K | 0.5867
283.1 K | 0.6075
284.1 K | 0.6579
284.9 K | 0.6972
286.3 K | 0.7738
287.8 K | 0.8601
289.3 K | 0.9404
290.6 K | 1.034
292.2 K | 1.176
294.6 K | 1.394
296.2 K | 1.541
298.1 K | 1.762
300.2 K | 2.017
302.2 K | 2.275

CN(C)CCN [2-dimethylamino-1-ethylamine]
Conditions | vapor or sublimation pressure
273.8 K | 0.7397 kPa
274.2 K | 0.7526 kPa
275.2 K | 0.808 kPa
276.7 K | 0.8869 kPa
278.2 K | 0.9687 kPa
280.7 K | 1.114 kPa
283.2 K | 1.309 kPa
285.6 K | 1.561 kPa
288.2 K | 1.821 kPa
290.7 K | 2.088 kPa
293.2 K | 2.392 kPa
295.6 K | 2.763 kPa
298.2 K | 3.186 kPa and 3.282 kPa
300.7 K | 3.755 kPa and 3.727 kPa
303.2 K | 4.331 kPa and 4.291 kPa
